Here are results for 15 compounds from ChEMBL document CHEMBL6083198, “Rational design of a high-affinity fluorescent probe for visualizing monitoring the amyloid β clearance effect of anti-Alzheimer's disease drug candidates” (Eur J Med Chem, 2024).

For orientation: Kd means a measure of binding affinity in units of concentration.

In data set [1] the target is T1, Amyloid-beta precursor protein (Homo sapiens, UniProt P05067). Nature of the data set: Binding affinity to amyloid beta (unknown origin) assessed as dissociation constant.
T1 sequence (P05067 whole entry): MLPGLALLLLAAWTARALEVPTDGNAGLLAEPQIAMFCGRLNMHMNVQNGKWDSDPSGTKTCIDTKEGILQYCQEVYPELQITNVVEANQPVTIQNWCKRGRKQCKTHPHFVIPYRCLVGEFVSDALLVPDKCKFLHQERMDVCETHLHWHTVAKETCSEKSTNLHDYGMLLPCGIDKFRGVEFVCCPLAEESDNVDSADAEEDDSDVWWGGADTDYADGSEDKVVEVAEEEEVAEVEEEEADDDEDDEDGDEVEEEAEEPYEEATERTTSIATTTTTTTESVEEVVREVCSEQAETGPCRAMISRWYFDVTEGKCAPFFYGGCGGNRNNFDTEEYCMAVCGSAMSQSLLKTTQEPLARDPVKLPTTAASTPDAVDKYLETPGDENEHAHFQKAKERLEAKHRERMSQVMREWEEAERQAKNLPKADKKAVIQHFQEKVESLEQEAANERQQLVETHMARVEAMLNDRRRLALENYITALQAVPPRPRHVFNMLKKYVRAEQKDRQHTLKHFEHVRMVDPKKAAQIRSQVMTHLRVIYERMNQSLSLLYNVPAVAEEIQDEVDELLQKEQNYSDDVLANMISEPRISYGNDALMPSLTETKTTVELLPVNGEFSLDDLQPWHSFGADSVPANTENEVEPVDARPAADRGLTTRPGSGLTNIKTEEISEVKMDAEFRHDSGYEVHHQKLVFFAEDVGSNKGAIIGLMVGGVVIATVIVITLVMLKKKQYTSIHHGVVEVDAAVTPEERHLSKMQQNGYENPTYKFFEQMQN
Data set [2] can be described thus: (§1) Binding affinity to amyloid beta fibril (unknown origin) assessed as dissociation constant. Also noted: species or system Homo sapiens.
Data set [3] is filed under the species Homo sapiens. The description is as §1.
Data set [4] is described as follows: Photostability of compound under continuous light irradiation. Format: physicochemical.
For data set [5], the species on record is Mus musculus. Put plainly: Binding affinity to amyloid beta plaques in 12 month old male APP/PS1mouse brain cerebral cortex by light-sheet microscopy. Format: tissue-based. The following applies: time 12.0 months.
Data set [6] has as its target T1, Amyloid-beta precursor protein. Nature of the data set: Binding affinity to amyloid beta oligomers (unknown origin) at 5 uM by fluorescence analysis.
The subject of data set [7] is SH-SY5Y. Nature of the data set: Cytotoxicity against human SH-SY5Y cells at 100 uM incubated for 24 hrs. Type of data set: toxicity, cell-based.
Data set [8] addresses Albumin (Bos taurus, UniProt P02769). Put plainly: Binding affinity to bovine serum albumin (unknown origin) at 0.05 mg/ml by fluorescence analysis. Particulars: cattle.
Data set [9] can be described thus: Binding affinity to cellulase (unknown origin) at 0.05 mg/ml by fluorescence analysis.
Data set [10] is filed under the species Homo sapiens. Nature of the data set: Binding affinity to amyloid beta fibril (unknown origin) at 0.025 mg/ml by fluorescence analysis.
For data set [11], the species on record is Mus musculus. Put plainly: Binding affinity to amyloid beta plaques in 12 month old male APP/PS1 transgenic mouse model assessed as colocalization of amyloid beta plaques in brain at 100 uM incubated for 30 min by ab205240 staining based immunohistofluorescence assay. Format: tissue-based. Particulars: time 12.0 months.
The species entered for data set [12] is Homo sapiens. Put plainly: Binding affinity to phosphoesterase (unknown origin) at 0.05 mg/ml by fluorescence analysis.
Data set [13] is described as follows: Fluorescence property of compound in DCM assessed as fluorescence quantum yield. Format: physicochemical.
In data set [14] the target is Trypsin (Homo sapiens) (UniProt P07477+P07478+P35030). Put plainly: Binding affinity to trypsin (unknown origin) at 0.05 mg/ml by fluorescence analysis. Type of data set: protein assay.
A short description of data set [15]: Stability of compound at pH 2 to 10 in presence of Amyloid beta. Format: physicochemical. Particulars: buffer.
Data set [16] is filed under the species Homo sapiens. Put plainly: Binding affinity to amyloid beta monomer (unknown origin) assessed as dissociation constant.
Data set [17] in a line: Binding affinity to amyloid beta oligomer (unknown origin) assessed as dissociation constant. Also noted: species or system Homo sapiens.
Data set [18] has as its system U-87 MG. Put plainly: Cytotoxicity against human U-87 MG cells at 100 uM incubated for 24 hrs. Type of data set: toxicity, cell-based. The following applies: u-87mg atcc.
The species named for data set [19] is Mus musculus. Put plainly: Binding affinity to amyloid beta plaques in 12 month old male APP/PS1 transgenic mouse model assessed as signal to noise ratio in brain slice at 100 uM incubated for 30 min by confocal microscopic analysis. Format: tissue-based. Particulars: time 12.0 months.
The species named for data set [20] is Homo sapiens. Nature of the data set: Binding affinity to pepsin (unknown origin) at 0.05 mg/ml by fluorescence analysis.
For data set [21], the species on record is Homo sapiens. Nature of the data set: Binding affinity to lysozyme (unknown origin) at 0.05 mg/ml by fluorescence analysis.
Data set [22] has as its target T1, Amyloid-beta precursor protein. Put plainly: Binding affinity to amyloid beta plaques 1 to 42 (unknown origin) assessed as dissociation constant.
For data set [23], the system named is Caenorhabditis elegans. Put plainly: Anti-alzheimer activity against heat-induced Caenorhabditis elegans CL4176 AD paralysis model assessed as reduction in amyloid-beta deposition at 100 to 200 uM. The following applies: dose 100-200 µM, time 5.0 day. Type of data set: functional, organism-based.
Data set [24] deals with Caenorhabditis elegans. Put plainly: Anti-alzheimer activity against heat-induced Caenorhabditis elegans CL4176 AD paralysis model assessed as reduction in amyloid-beta deposition measured after 5 days by ThS staining based fluorescence assay. Type of data set: functional, organism-based. The following applies: dose 100-200 µM, time 5.0 day.
For data set [25], the system named is SH-SY5Y. Nature of the data set: Neuroprotective activity against amyloid beta-induced toxicity in human SH-SY5Y cells assessed as reduction in fluorescence intensity at 10 uM incubated for 24 hrs by immunofluorescence staining based analysis. Type of data set: functional, cell-based.
The target of data set [26] is T1, Amyloid-beta precursor protein. Put plainly: Inhibition of amyloid beta aggregation in amyloid beta-induced human SH-SY5Y cells assessed as reduction in fluorescence intensity at 2 to 20 uM incubated for 24 hrs by Western blot analysis. Particulars: dose 2-20 µM. Format: cell-based. In general terms: A western blot detects proteins with antibodies after separation by electrophoresis.

The test system of data set [27] is SH-SY5Y. Put plainly: Neuroprotective activity against amyloid beta-induced toxicity in human SH-SY5Y cells assessed as reduction in fluorescence intensity at 2 uM incubated for 24 hrs by immunofluorescence staining based analysis. Format: functional, cell-based.
In data set [28] the test system is Caenorhabditis elegans. Nature of the data set: Anti-alzheimer activity against heat-induced Caenorhabditis elegans CL2006 AD paralysis model assessed as reduction in amyloid-beta deposition at 200 uM measured after 5 days by ThS staining based fluorescence assay. Format: functional, organism-based. Particulars: time 5.0 day.
Data set [29] is described as follows: Fluorescence property of compound in aqueous solution assessed as fluorescence quantum yield. Type of data set: physicochemical. The following applies: buffer.

Activity calls are given as the source filed them. The rule behind the calls is not given here.

Sequence of Albumin (P02769 whole entry): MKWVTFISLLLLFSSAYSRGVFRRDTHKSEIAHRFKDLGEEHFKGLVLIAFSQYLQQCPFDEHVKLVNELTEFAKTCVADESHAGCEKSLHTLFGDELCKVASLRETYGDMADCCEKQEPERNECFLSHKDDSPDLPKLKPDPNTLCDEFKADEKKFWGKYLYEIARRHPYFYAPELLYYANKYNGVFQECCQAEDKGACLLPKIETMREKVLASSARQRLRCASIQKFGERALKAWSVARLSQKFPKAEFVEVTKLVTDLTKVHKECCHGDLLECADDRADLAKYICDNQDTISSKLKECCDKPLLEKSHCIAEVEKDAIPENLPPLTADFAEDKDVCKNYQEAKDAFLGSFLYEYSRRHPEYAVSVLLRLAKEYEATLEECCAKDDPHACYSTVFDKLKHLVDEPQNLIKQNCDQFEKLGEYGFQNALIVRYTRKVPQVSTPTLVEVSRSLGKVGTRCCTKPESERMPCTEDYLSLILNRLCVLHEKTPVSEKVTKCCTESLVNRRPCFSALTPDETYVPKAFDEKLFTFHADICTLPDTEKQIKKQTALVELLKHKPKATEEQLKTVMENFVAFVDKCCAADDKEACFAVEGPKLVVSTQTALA

On to `CN(C)c1ccc2cc(/C=C/c3ccc4ccccc4[n+]3C)c(=O)oc2c1`, for which the Kd in data set [1] turned out to be 86 nM.

With `CN(C)c1ccc(/C=C/c2ccc3cc(C#N)c(=O)oc3c2)cc1`, the Kd worked out at 66.7 nM in [2] and 81.5 nM in [17]. Further, the outcome in data set [3], in data set [5], in data set [6], in [10], in [11] and in data set [19] was Active. The Stability result in data set [4] and in data set [15] was “Stable” throughout. Further, the Activity entry in [7] was “Non-toxic”; in data set [8], “Not_active”; in [13], 0.3; in data set [18], “Non-toxic”. Further, the outcome in [9], in data set [12], in data set [14], in data set [16], in data set [20] and in [21] was inactive.

Consider `COCCOCCOC(=O)CCN1C(=O)/C(=C/c2ccc3c(c2)Sc2ccccc2N3C)SC1=S`, for which, in [1], the Kd came out at 28.2 nM.

For the compound `CN(C)c1ccc2cc3c(cc2c1)OCC(C=C(C#N)C#N)=C3`, the Kd in data set [1] worked out at 44.8 nM.

As to `CN(C)c1ccc(/C=C/C=C/C=C(C#N)C#N)s1`, the Kd in [1] was 117 nM.

With `CN(C)c1ccc(-c2ccc(/C=C/C3CC(=C(C#N)C#N)c4ccccc4N3CCCS(=O)(=O)O)s2)cc1` (configuration not stated), the Kd in [1] was 170 nM.

For the compound `COCCOCCn1c2ccccc2c2cc(CCc3cc[n+](C)c4ccccc34)ccc21`, the Kd in data set [1] was determined as 13.1 nM.

On to `Cc1cc(/C=C/c2ccc(N(C)C)s2)n2c1C(CCCN1CCNc3ccccc31)=C1C=CC=[N+]1[B-]2(F)F`, for which the Kd in [22] worked out at 27 nM.

Turning to `CC(=O)Oc1ccccc1C(=O)Nc1ncc([N+](=O)[O-])s1`, the outcome in data set [23], in data set [25] and in data set [26] was Active. Further, the Activity entry in data set [24] was “Dose-dependent-effect”.

Take `O=c1c(O)c(-c2ccc(O)c(O)c2)oc2cc(O)cc(O)c12`: the Activity result in data set [24] was “Dose-dependent-effect”.

With `CC(=O)Oc1cccc(C(=O)Nc2ncc(N3CCOCC3)s2)c1`, the result in [27], in data set [23] and in data set [26] was Active. In data set [24], the Activity entry was “Dose-dependent-effect”. For the same compound, the outcome in data set [28] was inactive.

With `CN(C)c1ccc(/C=C/C=C(C#N)/C=C/C(C#N)=C/C=C/C=C/c2ccc(N(C)C)cc2)cc1`, in [22], the Kd came to 1.04 nM.

With `CN(C)c1ccc(-c2ccc3cc(C#N)c(=N)oc3c2)cc1`, the Activity in data set [29] was 0.027. Further, in data set [1], the Kd was found to be 548 nM.

`CCN(CC)c1ccc(/C=C/C2=[O+][B-](F)(F)OC(/C=C/c3ccc(N(CC)CC)nc3)=C2CCCOc2c(C)cccc2C)cc1`: the dissociation constant (Kd) in data set [22] worked out at 506 nM.

`CCCN1/C(=C/C=C2\CCCC(C=C(C#N)C#N)=C2Cl)C(C)(C)c2ccccc21`: the dissociation constant Kd in data set [22] worked out at 59.1 nM.
